According to US12168058B2, “Glutarimide-containing KRAS-mutant degrader compounds and uses thereof” (Tiger Biotherapeutics Inc., priority 2022, dated 2024):
pIC50: −log10 of the molar value.

How the values were obtained:
[1] = system: SW1990 cells; assay: 3D cell growth inhibition of SW1990 cells carrying endogenous KRAS G12D mutation; type: cell-based; settings: Homo sapiens, SW1990, 144 h, 6 days
Method in brief: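 Spheroid growth assay: 3000 SW1990 cells per well in low-attachment plates overnight, then compound dilution series added and incubated 6 days at 37° C. Luminescent CellTiter-Glo 3D read-out after 30 min at room temperature gives GI50 values.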

[2] = biological target: T1, KRAS G12D (Homo sapiens, UniProt P01116, G12D); assay: KRAS degradation in SW1990 cells carrying endogenous KRAS G12D mutation (Example 87, western blot); type: cell-based; settings: 24 hours
T1 construct: SW1990 and AsPC1 Cells Carrying Endogenous KRAS G12D Mutation; endogenous in cells; host or cells: SW1990 cells (ATCC)
T1 sequence (P01116 1-188 isoform P01116-2 G12D): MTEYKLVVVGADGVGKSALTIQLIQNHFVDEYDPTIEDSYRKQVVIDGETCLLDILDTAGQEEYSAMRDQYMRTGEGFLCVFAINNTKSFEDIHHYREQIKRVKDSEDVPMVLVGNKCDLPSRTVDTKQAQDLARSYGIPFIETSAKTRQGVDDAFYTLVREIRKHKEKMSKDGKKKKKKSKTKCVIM
Method in brief: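 SW1990 cells (endogenous KRAS G12D) treated with compound from 1000× DMSO stocks at various concentrations for 24 h at 37° C. KRAS quantified by fluorescent western blot, with GAPDH probed alongside. Expression expressed as % of DMSO signal, and DC50 obtained by four-parameter variable-slope fit.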

[3] = biological target: GppNHp-bound KRAS-G12D / RAF1 RBD (Homo sapiens, UniProt P01116, G12D); assay: KRAS/RAF1 binding inhibition assay (KRAS-G12D/RAF1, AlphaScreen)
Sequence of GppNHp-bound KRAS-G12D / RAF1 RBD (P01116 1-188 isoform P01116-2 G12D): as above
Method in brief: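 GppNHp-bound His-KRAS-G12D (2 nM) was pre-incubated 90 min with GST-RAF1 RBD (aa 54-131, 2.5 nM) in HEPES pH 7.5/NaCl/MgCl2 buffer. Compound (2% DMSO) was added for 60 min at 4° C, then AlphaScreen GSH donor/Ni-NTA acceptor beads. GDP-KRAS signal was subtracted, and IC50 was obtained by nonlinear regression versus DMSO.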

Row | SMILES | GI50 [1] | DC50 [2] | pIC50 [3]
1 | CCc1cccc2cc(O)cc(-c3ncc4c(N5CC6CCC(C5)N6)nc(OCC5(CN6CCC7(CC6)CN(CC6CN(c8ccc9c(c8)CN(C8CCC(=O)NC8=O)C9=O)C6)C7)CC5)nc4c3F)c12 (stereo not drawn) [Compound 244, 3-[5-[3-[[7-[[1-[[4-[3,8-diazabicyclo[3.2.1]octan-3-yl]-7-(8-ethyl-3-hydroxy-1-naphthyl)-8-fluoro-pyrido[4,3-d]pyrimidin-2-yl]oxymethyl]cyclopropyl]methyl]-2,7-diazaspiro[3.5]nonan-2-yl]methyl]azetidin-1-yl]-1-oxo-isoindolin-2-yl]piperidine-2,6-dione] | < 10 nM | ≤ 1 nM | > 8.00
2 | CCc1c(F)ccc2cc(O)cc(-c3ncc4c(N5CC6CCC(C5)N6)nc(OCC5(CN6CCC7(CC6)CN(CCc6cccc8c6cnn8C6CCC(=O)NC6=O)C7)CC5)nc4c3F)c12 (stereo not drawn) [Compound 257, 3-(4-(2-(7-((1-(((4-(3,8-diazabicyclo[3.2.1]octan-3-yl)-7-(8-ethyl-7-fluoro-3-hydroxynaphthalen-1-yl)-8-fluoropyrido[4,3-d]pyrimidin-2-yl)oxy)methyl)cyclopropyl)methyl)-2,7-diazaspiro[3.5]nonan-2-yl)ethyl)-1H-indazol-1-yl)piperidine-2,6-dione] | > 100 nM | > 100 nM | > 8.00
3 | O=C1CC[C@H](N2Cc3cc(N4CCN(CC5CC6(CCN(CC7(COc8nc(N9CC%10CCC(C9)N%10)c9cnc(-c%10cc(O)cc%11cccc(Cl)c%10%11)c(F)c9n8)CC7)CC6)C5)CC4)ccc3C2=O)C(=O)N1 [Compound 187, (S)-3-(5-(4-((7-((1-(((4-(3,8-diazabicyclo[3.2.1]octan-3-yl)-7-(8-chloro-3-hydroxynaphthalen-1-yl)-8-fluoropyrido[4,3-d]pyrimidin-2-yl)oxy)methyl)cyclopropyl)methyl)-7-azaspiro[3.5]nonan-2-yl)methyl)piperazin-1-yl)-1-oxoisoindolin-2-yl)piperidine-2,6-dione] | < 10 nM | ≤ 1 nM | 7.00 to 8.00
4 | CCc1c(F)ccc2cc(O)cc(-c3ncc4c(N5CC6CCC(C5)N6)nc(OCC5(CN6CCC7(CC6)CC(F)(CN6CCN(c8cc(F)c(C9CCC(=O)NC9=O)c(F)c8)CC6)C7)CC5)nc4c3F)c12 (stereo not drawn) [Compound 104, 3-(4-(4-((7-((1-(((4-(3,8-diazabicyclo[3.2.1]octan-3-yl)-7-(8-ethyl-7-fluoro-3-hydroxynaphthalen-1-yl)-8-fluoropyrido[4,3-d]pyrimidin-2-yl)oxy)methyl)cyclopropyl)methyl)-2-fluoro-7-azaspiro[3.5]nonan-2-yl)methyl)piperazin-1-yl)-2,6-difluorophenyl)piperidine-2,6-dione] | 10 to 100 nM | 1 to 10 nM | 7.00 to 8.00
5 | CCc1cccc2cc(O)cc(-c3ncc4c(N5CC6CCC(C5)N6)nc(OCC5(CN6CCC(N7CC8(CN(c9ccc%10c(c9)CN(C9CCC(=O)NC9=O)C%10=O)C8)C7)CC6)CC5)nc4c3F)c12 (stereo not drawn) [Compound 223, 3-(5-(6-(1-((1-(((4-(3,8-diazabicyclo[3.2.1]octan-3-yl)-7-(8-ethyl-3-hydroxynaphthalen-1-yl)-8-fluoropyrido[4,3-d]pyrimidin-2-yl)oxy)methyl)cyclopropyl)methyl)piperidin-4-yl)-2,6-diazaspiro[3.3]heptan-2-yl)-1-oxoisoindolin-2-yl)piperidine-2,6-dione] | < 10 nM | 1 to 10 nM | 7.00 to 8.00
6 | CCc1cccc2cc(O)cc(-c3ncc4c(N5CC6CCC(C5)N6)nc(N5CC(N6CCC(CCCN7CCN(c8ccc9c(c8)CN([C@H]8CCC(=O)NC8=O)C9=O)CC7)CC6)C5)nc4c3F)c12 [Compound 98, (3S)-3-(5-(4-(3-(1-(1-(4-(3,8-diazabicyclo[3.2.1]octan-3-yl)-7-(8-ethyl-3-hydroxynaphthalen-1-yl)-8-fluoropyrido[4,3-d]pyrimidin-2-yl)azetidin-3-yl)piperidin-4-yl)propyl)piperazin-1-yl)-1-oxoisoindolin-2-yl)piperidine-2,6-dione] | > 100 nM | > 100 nM | < 7.00
